Source: patent US20080152765A1, “Coated Granular Formulations” (priority 2005, published 2008)
Several values for one entry are separate records, joined by “and”; a condition that tells them apart may be missing. Equal entries are not always repeated.

What was measured:
Assay type in all cases: physicochemical
[1] = Hygroscopicity and photosensitivity of starting material NADH, exposure to light, RH 75%, 20° C.; conditions: for weight (increase in weight relative to time zero): T = 0 2.00 g
Procedure: The hygroscopicity and photosensitivity of the starting material NADH (s.m.) was determined as increase in weight, relative to time zero, the relative content being given in p.a.: […]

[2] = Stability of the protected NADH product relative to the starting material, 5 days at 53° C.
[3] = Hygroscopicity of starting material SAMe, exposure at 75% RH and 20° C.; conditions: for weight (increase in weight relative to time zero): T = 0 2.00 g
Procedure: The hygroscopicity of the starting material SAMe (s.m.) was determined as increase in weight, relative to the time zero, the relative content being given in p.a.: […]

[4] = Stability of the protected SAMe product relative to the starting material, 5 days at 53° C.
[5] = Increase of hygroscopicity in % by weight, SAMe, 75% RH 40° C.
[6] = 1 day exposure to light, RH 75%, 20° C.
[7] = 2 days exposure to light, RH 75%, 20° C.
[8] = 3 days exposure to light, RH 75%, 20° C.
[9] = 4 days exposure to light, RH 75%, 20° C.
[10] = 5 days at 53° C., listed as s.m.

Structure (SMILES): NC(=O)C1=CN([C@@H]2O[C@H](COP(=O)(O)OP(=O)(O)OC[C@H]3O[C@@H](n4cnc5c(N)ncnc54)[C@H](O)[C@@H]3O)[C@@H](O)[C@H]2O)C=CC1 [NADH]
- NAD+ impurity [1, 6]: 1.21%
- NADH content [1, 6]: 97.9%
- Water (KF) [1, 6]: 1.82%
- weight (increase in weight relative to time zero) [1, 6]: 2.20 g
- NAD+ impurity [1, 7]: 1.55%
- NADH content [1, 7]: 97.3%
- Water (KF) [1, 7]: 1.91%
- weight (increase in weight relative to time zero) [1, 7]: 2.40 g
- NAD+ impurity [1, 8]: 2.89%
- NADH content [1, 8]: 96.0%
- Water (KF) [1, 8]: 2.44%
- weight (increase in weight relative to time zero) [1, 8]: 2.50 g
- NAD+ impurity [1, 9]: 3.45%
- NADH content [1, 9]: 95.5%
- Water (KF) [1, 9]: 2.86%
- weight (increase in weight relative to time zero) [1, 9]: 2.80 g
- NAD+ impurity ([1]; T = 0): 0.55%
- NADH content ([1]; T = 0): 98.4%
- Water (KF) ([1]; T = 0): 1.2%
- % NAD+ content ([2]; 5 days at 53° C.): 2.3%
- % NADH content ([2]; 5 days at 53° C.): 98.4%
- % water (KF) ([2]; 5 days at 53° C.): 1.5%
- % NAD+ content ([2]; T = 0): 0.5%
- % NADH content ([2]; T = 0): 100.1%
- % water (KF) ([2]; T = 0): 1.3%

Structure (SMILES): C[S+](CC[C@H](N)C(=O)O)C[C@H]1O[C@@H](n2cnc3c(N)ncnc32)[C@H](O)[C@@H]1O (stereo partly shown) [SAMe, S-adenosylmethionine]
- hygroscopicity and stability, in words ([3]; 75% RH and 20° C., 4 days): high hygroscopicity and high instability
- % MTA ([3]; 1 day at 75% RH and 20° C.): 1.5%
- % adenine + adenosine ([3]; 1 day at 75% RH and 20° C.): 1.3%
- % ionic SAMe ([3]; 1 day at 75% RH and 20° C.): 51.1%
- % water (KF) ([3]; 1 day at 75% RH and 20° C.): 2.1%
- weight (increase in weight relative to time zero) ([3]; 1 day at 75% RH and 20° C.): 2.40 g
- % MTA ([3]; 2 days at 75% RH and 20° C.): 1.9%
- % adenine + adenosine ([3]; 2 days at 75% RH and 20° C.): 2.4%
- % ionic SAMe ([3]; 2 days at 75% RH and 20° C.): 50.3%
- % water (KF) ([3]; 2 days at 75% RH and 20° C.): 2.9%
- weight (increase in weight relative to time zero) ([3]; 2 days at 75% RH and 20° C.): 2.90 g
- % MTA ([3]; 3 days at 75% RH and 20° C.): 2.4%
- % adenine + adenosine ([3]; 3 days at 75% RH and 20° C.): 2.9%
- % ionic SAMe ([3]; 3 days at 75% RH and 20° C.): 47.3%
- % water (KF) ([3]; 3 days at 75% RH and 20° C.): 3.4%
- weight (increase in weight relative to time zero) ([3]; 3 days at 75% RH and 20° C.): 3.50 g
- % MTA ([3]; 4 days at 75% RH and 20° C.): 3.0%
- % adenine + adenosine ([3]; 4 days at 75% RH and 20° C.): 3.2%
- % ionic SAMe ([3]; 4 days at 75% RH and 20° C.): 45.1%
- % water (KF) ([3]; 4 days at 75% RH and 20° C.): 3.8%
- weight (increase in weight relative to time zero) ([3]; 4 days at 75% RH and 20° C.): 4.50 g
- % MTA ([3]; T(0)): T(0) = 0.6%
- % adenine + adenosine ([3]; T(0)): T(0) = 0.4%
- % ionic SAMe ([3]; T(0)): T(0) = 52.1%
- % water (KF) ([3]; T(0)): T(0) = 1.5%
- % water (KF) ([4]; 5 days at 53° C.): 1.5%
- % Ionic SAMe content [4, 10]: 48.5% and 47.3%
- % MTA [4, 10]: 3.45% and 3.87%
- % adenine + adenosine [4, 10]: 3.35% and 3.54%
- % Ionic SAMe content ([4]; T = 0, listed as s.m): 52.4%
- % MTA ([4]; T = 0, listed as s.m): 0.3%
- % adenine + adenosine ([4]; T = 0, listed as s.m): 0.6%
- % water (KF) ([4]; T = 0, listed as s.m): 1.6%
- % Ionic SAMe content ([4]; T = 0, listed as s.m.): 52.1%
- % MTA ([4]; T = 0, listed as s.m.): 0.6%
- % adenine + adenosine ([4]; T = 0, listed as s.m.): 0.4%
- % water (KF) ([4]; T = 0, listed as s.m.): 1.5%
- Increase of hygroscopicity in % by weight ([5]; 1 day at 75% RH and 40° C.): 50%
- Increase of hygroscopicity in % by weight ([5]; T = 0): 0.00 % by weight
